Test results taken from EP0703904B1, “PYRIMIDINE CYANOGUANIDINES AS K-CHANNEL BLOCKERS” (priority 1993, dated 1994).

How the values were obtained:
[1] = tested on: female Harlan Sprague-Dawley rats; experiment: Diuretic screen in rats: urinary Na^+ excretion; assay type: in vivo
Description: The diuretic activity was determined in female Harlan Sprague-Dawley rats weighing 200 to 230 grams that were fasted 15 hours overnight, and then were deprived of both food and water for an additional hour prior to dosing. […] It approximates the area under the dose response curve. The vehicle was 20% dimethylacetamide (DMA; v/v) in a pH 7.4 phosphate buffer (0.58% N2HPO4 and 0.13% NaH2PO4·H2O). Sufficient drug was suspended in 1 to 2 ml of this vehicle to deliver doses of 1.0 to 30 mg/kg in a volume of 0.5 ml (2-4 rats/dose). At least 2 vehicle control rats, and, for most tests, 2 standard diuretic treated rats were included in each experiment. Standards used as comparators included the K^+ retaining diuretic amiloride and tie K^+ wasting diuretics furosemide, hydrochlorothiazide and metolazone.
Following their IP doses, the rats' urinary bladders were gently compressed to eliminate all pretreatment urine, and two identically treated rats were placed in a stainless steel metabolism cage equipped with a graduated test tube to collect voided urine. At 2 and 5 hours post treatment, the rats' bladders were again compressed, the volume of urine excreted by the pair of rats was recorded, and aliquots of urine were retained for analysis of Na^+ and K^+ concentrations with a NOVA-13 selective ion analyzer. Following the 5 hour urine collection, the rats were returned to their stock cages, and at least 1 week of recovery was allowed between a maximum of 3 diuretic tests.
The electrolyte concentrations detected in these urine samples were manually mulliplied by their respective volumes to determine total milliequivalent (mEq) excretion of Na^+ and K^+ per pair of rats, and the results obtained with multiple racks per drug treatment were averaged. Increases in urinary Na^+ excretion of 50% or more above the pooled control tests were regarded as reflecting activity.

[2] = target: RMA K^+ Channel (Oryctolagus cuniculus, UniProt P82451+Q8WMQ7); experiment: Inhibition of pinacidil-induced relaxation of norepinephrine-contracted isolated rabbit mesenteric artery (RMA) rings; assay type: cell-based; conditions: inhibitor 5 µM; pinacidil 1 µM; norepinephrine 5 µM contracted rings; mean ± sem; relaxation at 15 minutes versus control; number of rings in brackets; read-out: RMA K^+ Channel Antagonism % I at 5 µM
Sequence of RMA K^+ Channel (P82451 whole entry): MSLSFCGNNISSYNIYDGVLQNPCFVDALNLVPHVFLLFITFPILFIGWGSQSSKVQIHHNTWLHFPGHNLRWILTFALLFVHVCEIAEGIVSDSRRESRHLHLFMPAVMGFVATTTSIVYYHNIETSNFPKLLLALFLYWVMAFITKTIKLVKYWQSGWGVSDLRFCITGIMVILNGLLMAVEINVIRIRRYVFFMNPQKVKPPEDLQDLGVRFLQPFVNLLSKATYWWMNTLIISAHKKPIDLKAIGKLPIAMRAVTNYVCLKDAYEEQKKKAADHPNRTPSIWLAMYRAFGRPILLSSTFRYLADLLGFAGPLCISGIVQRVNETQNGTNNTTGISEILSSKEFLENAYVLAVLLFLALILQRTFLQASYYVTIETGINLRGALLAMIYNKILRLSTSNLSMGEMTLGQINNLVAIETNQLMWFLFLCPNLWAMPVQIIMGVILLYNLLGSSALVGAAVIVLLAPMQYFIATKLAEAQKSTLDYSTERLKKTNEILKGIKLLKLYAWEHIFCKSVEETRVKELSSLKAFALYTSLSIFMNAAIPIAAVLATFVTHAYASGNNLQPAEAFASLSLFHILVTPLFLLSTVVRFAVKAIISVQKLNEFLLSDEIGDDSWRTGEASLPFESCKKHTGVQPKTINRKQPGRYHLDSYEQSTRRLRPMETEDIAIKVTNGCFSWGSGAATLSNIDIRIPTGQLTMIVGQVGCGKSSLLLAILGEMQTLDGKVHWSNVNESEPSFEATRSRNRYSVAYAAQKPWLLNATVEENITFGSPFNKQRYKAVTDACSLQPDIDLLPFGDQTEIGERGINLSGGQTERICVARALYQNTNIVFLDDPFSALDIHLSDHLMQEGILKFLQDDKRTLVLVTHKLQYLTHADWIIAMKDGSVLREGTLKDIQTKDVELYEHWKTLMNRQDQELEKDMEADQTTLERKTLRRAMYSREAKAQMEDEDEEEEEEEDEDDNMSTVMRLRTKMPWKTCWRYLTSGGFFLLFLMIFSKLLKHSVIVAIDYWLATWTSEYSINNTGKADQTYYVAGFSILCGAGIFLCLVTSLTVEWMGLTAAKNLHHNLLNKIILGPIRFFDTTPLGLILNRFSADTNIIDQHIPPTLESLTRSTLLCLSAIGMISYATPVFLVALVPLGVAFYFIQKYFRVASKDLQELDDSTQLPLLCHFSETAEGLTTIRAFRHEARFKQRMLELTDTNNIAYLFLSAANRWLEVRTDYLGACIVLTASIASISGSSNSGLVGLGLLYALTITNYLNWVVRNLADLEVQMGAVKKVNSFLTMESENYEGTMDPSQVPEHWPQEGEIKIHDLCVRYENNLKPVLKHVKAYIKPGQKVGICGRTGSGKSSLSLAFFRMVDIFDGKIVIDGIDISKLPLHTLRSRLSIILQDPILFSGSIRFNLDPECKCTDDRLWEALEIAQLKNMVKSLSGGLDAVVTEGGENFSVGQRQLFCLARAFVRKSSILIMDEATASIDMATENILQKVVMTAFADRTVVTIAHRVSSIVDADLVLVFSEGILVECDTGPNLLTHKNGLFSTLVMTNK
Sequence of RMA K^+ Channel (Q8WMQ7 1-424): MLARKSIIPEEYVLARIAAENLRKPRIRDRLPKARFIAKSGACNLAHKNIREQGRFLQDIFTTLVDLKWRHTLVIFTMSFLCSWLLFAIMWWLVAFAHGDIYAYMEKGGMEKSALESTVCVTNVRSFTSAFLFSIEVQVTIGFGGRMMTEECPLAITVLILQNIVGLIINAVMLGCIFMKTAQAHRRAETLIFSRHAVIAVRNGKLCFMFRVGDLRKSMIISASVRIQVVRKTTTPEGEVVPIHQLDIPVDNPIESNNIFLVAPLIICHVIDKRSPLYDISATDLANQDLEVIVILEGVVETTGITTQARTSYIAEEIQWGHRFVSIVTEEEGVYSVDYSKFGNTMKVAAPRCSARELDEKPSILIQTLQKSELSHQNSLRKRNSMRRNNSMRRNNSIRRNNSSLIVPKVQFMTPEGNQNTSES
Description: The results for potassium channel blocking were obtained by using isolated rabbit mesenteric artery (RMA) procedures. Norepinephrine (5 µM) was used to contract the RMA rings twice, with an hour separating the two contractions. During this hour the tissues equilibrated in physiological salt solution at a resting tension of 1 gram. Upon the plateau of the second contraction 1 µM pinacidil was added to all tissues and the resulting relaxation time course was studied for thirty minutes. […] By studying the ability of the test compounds to inhibit this pinacidil-induced relaxation, the degree of potassium antagonism could be determined. The compounds were applied to the tissues for one hour between the two contractions and the pinacidil-induced relaxation was studied in the continuing presence of the compounds. Thus, the total time of pretreatment with the test compound was 75 minutes before the addition of pinacidil. […] The compounds were tested at 5 µM. The inhibitory effect of a compound was measured as percent inhibition of pinacidil relaxation at 15 minutes in comparison with the control.

[3] = net increase above control in urinary Na^+ excretion over 5 hours divided by total of the three drug doses, administered IP

inhibition at 5 µM [2] [%] | SMILES | 5 h Net Natriuretic Efficacy (µEq Na^+/mg/kg) [1, 3] [µEq Na^+/mg/kg] | 5 h Net Natriuretic Efficacy (µEq Na^+/mg/kg) ([1]; antidiuresis seen with 5 mg/kg oral dosage (footnote d))
0 | N#CN=C(NCC(c1ccccc1)c1ccccc1)Nc1cccnc1 [Control] | 0.0 | 
81.7 ± 4.4 | C[C@@H](NC(=NC#N)Nc1cncnc1)c1ccccc1 [Example 1, (R)-N"-Cyano-N-(5-pyrimidyl)-N'-(1-phenyl)ethylguanidine] | 13.2 | 
97 | N#CN=C(Nc1cnc(N)nc1)NC1(c2ccccc2)CCC1 [Example 2, N-(2-Amiro-5-pyrimidyl)N"-cyano-N'-(1-phenyl)cyclobutylguanidine] | 43 | 
0 | CC(N/C(=N\C#N)Nc1ccncc1)C(C)(C)C (centres unmarked) [Pinacidil] |  | -60^d µEq Na^+/mg/kg
